Experimental data: paper PMC4774534 (Antiviral Research, 2015)
Where a name gives a salt, the structure may show the parent alone. Read-outs that look alike come from different tables or passages of the source.

Assays:
[1] = system: SARS-CoV S pseudotyped virus on 293T-ACE2 cells; type: cell-based; conditions: read-out: HIV-luc (SARS-CoV S) IC50
[2] = system: EBOV pseudotyped virus on 293T-ACE2 cells; type: cell-based; conditions: read-out: HIV-luc (EBOV GP) IC50
[3] = system: SARS-CoV Urbani strain in Vero 76 cells; type: cell-based; conditions: read-out: CPE inhibition IC50
[4] = system: SARS-CoV Toronto-2 strain in Vero 76 cells; type: cell-based; conditions: read-out: CPE inhibition IC50
[5] = system: SARS-CoV Urbani strain in Vero 76 cells; type: cell-based; conditions: read-out: Neutral red (NR) assay IC50
[6] = system: SARS-CoV Toronto-2 strain in Vero 76 cells; type: cell-based; conditions: read-out: Neutral red (NR) assay IC50
[7] = system: SARS-CoV Urbani strain in Vero 76 cells; type: cell-based; conditions: read-out: Virus yield reduction IC90
[8] = system: replication competent SARS-CoV (Urbani and Toronto-2); type: cell-based
[9] = system: SARS-CoV Toronto-2 strain in Vero 76 cells; type: cell-based; conditions: read-out: Virus yield reduction IC90
[10] = system: Ebola pseudovirus on 293T-CD13 cells transiently expressing TMPRSS2; type: cell-based, EBOV
[11] = system: VSV-G pseudovirus on 293T-CD13 cells transiently expressing TMPRSS2; type: cell-based

| Compound | IC50 [1] [nM] | IC50 [2] [nM] | also measured |
| --- | --- | --- | --- |
| O=C(N[C@H](/C=C/S(=O)(=O)c1ccccc1)CCc1ccccc1)[C@H](Cc1ccccc1)NC(=O)N1CCN(CC2CC2)CC1 [SMDC-256162, (2S)-N-[(1E,3S)-1-(benzenesulfonyl)-5-phenylpent-1-en-3-yl]-2-{[(E)-4-(cyclopropylmethyl)piperazine-1-carbonyl]amino}-3-phenylpropanamide] | 0.16 ± 0.03 | 0.1 ± 0.01 | – |
| COCCN1CCN(C(=O)N[C@@H](Cc2ccccc2)C(=O)N[C@H](/C=C/S(=O)(=O)c2ccccc2)CCc2ccccc2)CC1 [SMDC-256159, (2S)-N-[(1E,3S)-1-(benzenesulfonyl)-5-phenylpent-1-en-3-yl]-2-{[(E)-4-(2-methoxyethyl)piperazine-1-carbonyl]amino}-3-phenylpropanamide] | 0.07 ± 0.02 | 0.16 ± 0.02 | IC50 [3]: 650 ± 810 nM; IC50 [4]: < 480 nM; IC50 [5]: < 2260 nM; IC50 [6]: 650 nM; IC90 [7]: 7.1 ± 7.6 µM; 90% reduction in viral yields, range over strains [8]: <0.48 to 7.1 µM |
| (2S)-N-[(1E,3S)-1-(benzenesulfonyl)-5-phenylpent-1-en-3-yl]-2-{[(E)-4-tert-butylpiperazine-1-carbonyl]amino}-3-phenylpropanamide [SMDC-256160] | 0.08 ± 0.01 | 0.11 ± 0.03 | IC50 [3]: < 80 nM; IC50 [4]: < 50 nM; IC50 [5]: < 130 nM; IC50 [6]: 320 nM; IC90 [7]: 0.49 µM; IC90 [9]: 12.2 µM; 90% reduction in viral yields, range over strains [8]: 0.49 to 12.2 µM; IC50 ([8]; read-out: IC50 values, range over strains and readouts): 50 to 320 nM |
| CN(C)C(=O)COC(=O)Cc1ccc(OC(=O)c2ccc(NC(=N)N)cc2)cc1 [camostat, camostat mesylate] | – | – | effect on Ebola pseudovirus infection [10]: no impact; effect on VSV-G driven viral entry [11]: no impact |
| CC(C)N1CCN(C(=O)N[C@@H](Cc2ccccc2)C(=O)N[C@H](/C=C/S(=O)(=O)c2ccccc2)CCc2ccccc2)CC1 [SMDC-256123, (2S)-N-[(1E,3S)-1-(benzenesulfonyl)-5-phenylpent-1-en-3-yl]-2-{[(E)-4-(propan-2-yl)piperazine-1-carbonyl]amino}-3-phenylpropanamide] | 0.11 ± 0.01 | 0.25 ± 0.07 | – |
| O=C(N[C@H](/C=C/S(=O)(=O)c1ccccc1)CCc1ccccc1)[C@H](Cc1ccccc1)NC(=O)N1CCN(C2CCCC2)CC1 [SMDC-256161, (2S)-N-[(1E,3S)-1-(benzenesulfonyl)-5-phenylpent-1-en-3-yl]-2-{[(E)-4-cyclopentylpiperazine-1-carbonyl]amino}-3-phenylpropanamide] | 0.25 ± 0.16 | 0.18 ± 0.01 | – |
| CCCN1CCN(C(=O)N[C@@H](Cc2ccccc2)C(=O)N[C@H](/C=C/S(=O)(=O)c2ccccc2)CCc2ccccc2)CC1 [SMDC-256157, (2S)-N-[(1E,3S)-1-(benzenesulfonyl)-5-phenylpent-1-en-3-yl]-2-{[(E)-4-propylylpiperazine-1-carbonyl]amino}-3-phenylpropanamide] | 0.24 ± 0.03 | 0.42 ± 0.03 | – |
| CCN1CCN(C(=O)N[C@@H](Cc2ccccc2)C(=O)N[C@H](/C=C/S(=O)(=O)c2ccccc2)CCc2ccccc2)CC1 [SMDC-256122, (2S)-N-[(1E,3S)-1-(benzenesulfonyl)-5-phenylpent-1-en-3-yl]-2-{[(E)-4-ethylpiperazine-1-carbonyl]amino}-3-phenylpropanamide] | 0.04 ± 0.01 | 0.12 ± 0.01 | – |
| O=C(N[C@H](/C=C/S(=O)(=O)c1ccccc1)CCc1ccccc1)[C@H](Cc1ccccc1)NC(=O)N1CCN(c2ccccc2)CC1 [SMDC-256158, (2S)-N-[(1E,3S)-1-(benzenesulfonyl)-5-phenylpent-1-en-3-yl]-2-{[(E)-4-phenylpiperazine-1-carbonyl]amino}-3-phenylpropanamide] | 2.49 ± 0.34 | 2.69 ± 0.43 | – |
